From paper PMC6832836 (Toxins, 2019)

Columns and labels:
[1] = tested on: cell-free extract (CE) of Sphingopyxis sp. USTB-05; details: cited from earlier work
USTB-05-A mutants = details: cited from earlier work
[2] = tested on: MlrA point mutants H260A and E265A; details: cited from earlier work
[3] = tested on: CE of recombinant pET30a(+)/BL21(DE3); format: in vitro ADME, E. coli; details: CE of pET30a(+)/BL21(DE3) added at 12 h; PBS; 30 °C; HPLC-UV 238 nm; Figure S1
Experimental: The experiments were carried out with five treatments as following: • Control groups for treatment A and treatment C: the CEs of recombinant bacteria pGEX-4T-1/BL21(DE3) without protein USTB-05-A and recombinant bacteria pET30a(+)/BL21(DE3) without protein USTB-05-C were added into two tubes with PBS containing NOD, respectively. • Treatment A: the CE of recombinant bacteria pGEX-4T-1/USTB-05-A/BL21(DE3) containing crude protein USTB-05-A was added into PBS containing NOD. • Treatment C: the CE of recombinant bacteria pET30a(+)/USTB-05-C/BL21(DE3) containing crude protein USTB-05-C was added into PBS containing NOD. • Treatment AC: at 0 h, the CE containing crude protein USTB-05-A was added into PBS containing NOD. At 12 h, the CE containing crude protein USTB-05-C was added to the above solution. • Control group for treatment A and treatment C: at 0 h, the CE containing crude protein USTB-05-A was added into the test tubes with PBS containing NOD. At 12 h, the CE of pET30a(+)/BL21(DE3) without protein USTB-05-C was added to the above solution. […]
The concentration of NOD was detected by high performance liquid chromatography (HPLC) (LC10ATVP, Shimadzu Co., Ltd., Tokyo, Japan) with a UV diode array detector at 238 nm. […] The spectra of NOD and its biodegradation products were detected at the time of HPLC analysis.

USTB-05-A = details: initial NOD 13.7 mg L^−1; CE protein 158 mg L^−1; PBS; 30 °C, 200 rpm; 12 h to 24 h; HPLC-UV 238 nm
USTB-05-C = details: CE protein 165 mg L^−1 added at 12 h; followed from 13 h until 24 h; PBS; 30 °C, 200 rpm; HPLC-UV 238 nm

## MC-YR
[1]
  time to complete elimination by CE: ≤ 10 h

## MC-LR
[1]
  time to complete biodegradation by CE: ≤ 3 h
USTB-05-A mutants
  MC-LR biodegradation by N264A mutant: significant decrease in MlrA activity
  MC-LR biodegradation by W176A and W201A mutants: decrease in the reaction rate to some extent
  MC-LR biodegradation by point mutants E172A, H205A and H260A: complete loss of enzymatic activity
[2]
  MC-LR biodegradation by MlrA point mutants H260A and E265A: no activity

## C/C=C(/C(=O)N[C@@H](C(=O)O)[C@H](C)C(=O)N[C@@H](CCCNC(=N)N)C(=O)O)N(C)C(=O)CC[C@@H](NC(=O)[C@@H](C)[C@@H](N)/C=C/C(C)=C/[C@H](C)[C@H](Cc1ccccc1)OC)C(=O)O [product A]
[3]
  concentration of product A with control CE without USTB-05-C (control group of treatment AC): constant
USTB-05-A
  peaks after the first 12 h until 24 h with CE containing USTB-05-A only (treatment A): remained constant
USTB-05-C
  change of product A peak after addition of CE containing USTB-05-C (treatment AC): decreased and disappeared
